For orientation: half-life means how long it takes for the measured level to halve.

We go through 3 molecules from US11891350B2, “Compounds for use in the treatment or prophylaxis of pain, inflammation and/or autoimmunity” (NOVAREMED LTD., priority 2019, dated 2024).

Like-named read-outs stand apart in the source and are kept apart here.

The target in one data set is LynA tyrosine kinase (Homo sapiens, UniProt P07948). The data set can be described thus: Effect on LynA tyrosine kinase activity. The data set is classed as biochemical.
Chain of LynA tyrosine kinase (P07948 whole entry): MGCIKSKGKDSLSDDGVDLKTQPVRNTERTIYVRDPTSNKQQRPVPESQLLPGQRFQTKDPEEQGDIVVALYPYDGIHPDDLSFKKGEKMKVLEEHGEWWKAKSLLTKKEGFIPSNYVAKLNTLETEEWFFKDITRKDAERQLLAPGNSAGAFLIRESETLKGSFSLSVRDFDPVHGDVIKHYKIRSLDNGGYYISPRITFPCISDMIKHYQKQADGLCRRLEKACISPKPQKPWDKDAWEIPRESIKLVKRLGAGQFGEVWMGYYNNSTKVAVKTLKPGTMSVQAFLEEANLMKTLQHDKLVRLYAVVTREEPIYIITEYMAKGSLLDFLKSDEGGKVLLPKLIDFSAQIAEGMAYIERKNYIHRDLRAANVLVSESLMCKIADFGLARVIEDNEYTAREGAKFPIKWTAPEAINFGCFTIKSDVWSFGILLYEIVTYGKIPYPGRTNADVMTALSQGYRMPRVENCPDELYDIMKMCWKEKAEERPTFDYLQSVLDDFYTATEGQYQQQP
A short description of data set [1]: Bioavailability and pharmacokinetics of polymorphs 1 and 2 after single oral dose, cross-over, in dogs. The format is in vivo, male Beagle dog. The conditions noted are these: for LS geometric mean Cmax: corrected to a 60.0-mg dose; for adverse reactions to the oral administration: single oral dose 60 mg/kg. As to the method: This study was designed to obtain blood plasma samples to enable the comparison of the bioavailability and pharmacokinetics of two different polymorphs 1 and 2 following single-dose oral administration to six dogs. A cross-over design was used with three dogs treated according to sequence 1 (polymorph 2 after 1) and three dogs according to sequence 2 (polymorph 1 after 2) with a one-week washout period between treatments.
Each polymorph was prepared as a suspension in a vehicle of 0.5% w/v HPMC K15M/0.5% w/v Tween 80 in sterile water.
Six male Beagle dogs (Tattoo numbers: 4986, 0964, 3611, 2380, 5002 and 1122 on-study animal numbers: 001 M, 002M, 003M, 004M, 005M and 006M, respectively) bodyweight 9.5-11.5 kg, aged 2-7 years at dosing, currently held as part of a colony of animals (Colony number: 190431) were used on this study. Dogs were originally obtained from Marshall Farms USA Inc. (NY, USA) or Envigo RMS, and were bred for use in scientific procedures. During pre-trial and on-study periods, the animals were group-housed in caging appropriate to the species. Prior to acceptance for use on study, animals were subject to a veterinary examination and the results found to be satisfactory. Holding and study areas had automatic control of light cycles and temperature. Light hours were 0700-1900 h. Ranges of temperature and humidity measured during the study were 17.0-21.8° C. and 23.4-83.07%, respectively. All animals were weighed prior to each dose administration and the bodyweights recorded. With the exception of a period of fasting from overnight predose until 4 hours post dose, a daily allowance of 200-300 g of standard laboratory diet of known formulation (SDS D3 (E) SQC) was available. Mains quality tap water was available ad libitum.
The formulation was always prepared on the morning of dose administration. Each polymorph was prepared as a suspension at a concentration of 12 mg/mL in a vehicle of 0.5% w/v HPMC K15M/0.5% w/v Tween 80 in sterile water for injection. The required volume of vehicle was added to an appropriate formulation container.
Each group of 3 male dogs, received a single oral dose administration of a polymorph at a target dose level of 60 mg/kg. Following a wash out period of 1 week each group of 3 male dogs received the alternative polymorph.
For each group, whole blood samples (ca 1.0 mL) were collected from the jugular veins in to NaF/EDTA tubes at the following time points:
Times given above were target times which were adhered to as closely as possible. Actual times of sample collection (and of dosing) were recorded (Table 2) and used in the evaluation of pharmacokinetic parameters. Immediately following collection, blood samples were placed on wet ice. As soon as practically possible the blood samples were centrifuged (+4° C., 1500 g, 10 min). The resulting plasma was divided into two aliquots (vial A: 100 μl plasma, vial B: remaining volume) and stored in appropriately labelled polypropylene tubes in a freezer set to maintain a temperature of −80° C. until shipment. All plasma samples, remaining dose formulation and dose aliquots were stored in a freezer set to maintain a temperature of −80° C. until shipment.
Pharmacokinetic (PK) parameters were estimated using Phoenix pharmacokinetic software using a non-compartmental approach consistent with the oral route of administration. All parameters were generated from polymorph 1 and 2 individual concentrations in plasma. Parameters were estimated using nominal sampling times relative to the start of each dose administration within an allowable deviation range (±10%). Predose samples below the limit of quantification (0.5 ng/mL) were assumed to be 0 for the PK analysis.
The area under the polymorph 1 and 2 plasma concentration versus time curve (AUC) was calculated using the linear trapezoidal method with linear interpolation. […]

The target of the next data set is LynB tyrosine kinase (Homo sapiens, UniProt P07948). The data set can be described thus: Effect on LynB tyrosine kinase activity. The format is biochemical.
Chain of LynB tyrosine kinase (P07948 1-491 isoform P07948-2): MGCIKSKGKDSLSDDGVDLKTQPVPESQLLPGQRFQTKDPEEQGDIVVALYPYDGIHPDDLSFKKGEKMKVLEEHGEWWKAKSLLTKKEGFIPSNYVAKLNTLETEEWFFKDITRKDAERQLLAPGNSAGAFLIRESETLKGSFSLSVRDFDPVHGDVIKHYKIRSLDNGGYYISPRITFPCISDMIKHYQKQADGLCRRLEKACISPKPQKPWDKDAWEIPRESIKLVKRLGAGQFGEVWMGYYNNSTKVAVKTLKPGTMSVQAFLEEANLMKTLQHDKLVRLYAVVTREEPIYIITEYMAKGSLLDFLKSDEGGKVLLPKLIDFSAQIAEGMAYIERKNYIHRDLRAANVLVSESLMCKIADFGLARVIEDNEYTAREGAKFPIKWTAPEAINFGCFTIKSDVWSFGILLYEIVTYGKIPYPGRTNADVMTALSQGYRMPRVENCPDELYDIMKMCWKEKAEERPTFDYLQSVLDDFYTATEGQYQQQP
In another data set the target is BLK tyrosine kinase (Homo sapiens, UniProt P51451). The data set can be described thus: Effect on BLK tyrosine kinase activity. The format is biochemical.
Chain of BLK tyrosine kinase (P51451 whole entry): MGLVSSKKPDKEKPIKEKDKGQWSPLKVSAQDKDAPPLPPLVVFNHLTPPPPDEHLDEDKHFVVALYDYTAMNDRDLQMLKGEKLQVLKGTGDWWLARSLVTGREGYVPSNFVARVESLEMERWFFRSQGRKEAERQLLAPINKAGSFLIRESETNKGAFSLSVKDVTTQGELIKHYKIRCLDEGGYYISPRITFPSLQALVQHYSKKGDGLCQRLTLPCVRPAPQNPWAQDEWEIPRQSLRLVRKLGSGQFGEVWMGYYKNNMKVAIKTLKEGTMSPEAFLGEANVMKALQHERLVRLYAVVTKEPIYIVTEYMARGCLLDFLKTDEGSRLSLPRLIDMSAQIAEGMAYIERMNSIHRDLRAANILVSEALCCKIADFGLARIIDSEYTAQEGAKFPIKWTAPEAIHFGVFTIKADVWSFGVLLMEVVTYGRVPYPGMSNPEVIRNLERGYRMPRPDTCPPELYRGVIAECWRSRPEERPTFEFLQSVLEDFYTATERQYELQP
Data set [2] in a line: Gravimetric Vapour Sorption (GVS). The data set is classed as physicochemical. The conditions noted are these: for change of polymorphic form on GVS cycling: hysteresis between cycles / XRPD after the cycles; for weight gain to 80% RH (GVS): first adsorption cycle. As to the method:
Gravimetric Vapour Sorption (GVS)
Approximately 10 mg of sample was placed into a wire-mesh vapour sorption balance pan and loaded into an ‘IgaSorp’ vapour sorption balance (Hiden Analytical Instruments). The sample was then dried by maintaining a 0% humidity environment until no further weight change was recorded. Subsequently, the sample was subjected to a ramping profile from 0-90% RH at 10% RH increments, maintaining the sample at each step until equilibration had been attained (99% step completion). Upon reaching equilibration, the % RH within the apparatus was ramped to the next step and the equilibration procedure repeated. After completion of the sorption cycle, the sample was then dried using the same procedure. The weight change during the sorption/desorption cycles were then monitored, allowing for the hygroscopic nature of the sample to be determined.

Setting [3] is: male Beagle dog plasma, oral suspension, target 60 mg/kg.

As to `C[C@H](O)COC[C@H](Cc1ccc(O)cc1)NC(=O)CCc1ccccc1` [NRD135S.E1, (S,S)-2-N(3-O-(propan-2-ol)-1-propyl-4-hydroxybenzene)-3-phenylpropylamide], at LynA tyrosine kinase, the “effect on activity of LynA tyrosine kinase” value is “capable of activating”. The “extrapolated part of AUC(0-∞)” value in data set [1] (male Beagle dog, oral 60 mg/kg) was “no more than 6%”. In addition, the half-life in data set [1] (plasma, male Beagle dog, oral 60 mg/kg, terminal decline, read-out: estimated mean half-life) is 3 to 4 h. At LynB tyrosine kinase, the “effect on activity of LynB tyrosine kinase” value is “no or substantially no effect”. Also, the “effect on activity of BLK tyrosine kinase” value on BLK tyrosine kinase was “capable of activating”.

As to `C[C@H](O)COC[C@H](Cc1ccc(O)cc1)NC(=O)CCc1ccccc1` [polymorph 1, (S,S)-2-N(3-O-(propan-2-ol)-1-propyl-4-hydroxybenzene)-3-phenylpropylamide], in data set [1] (setting [3]), the “LS geometric mean Cmax” value is given as 4986 ng/mL. Further, in data set [1] (male Beagle dog), the “adverse reactions to the oral administration” value was “No adverse reactions”. In addition, the AUC(0-inf) in data set [1] (male, Beagle, dog, plasma, po, 60 mg/kg, male Beagle dog plasma, oral suspension, target 60 mg/kg, corrected to a 60.0 mg dose, read-out: LS geometric mean AUC(0-∞)) was 13200 ng·h/mL. In addition, in data set [2], the “hygroscopicity (GVS, in words)” value was “hygroscopic”; the “change of polymorphic form on GVS cycling” value is on record as “hinted towards form change”; the “weight gain to 80% RH (GVS)” value came to 5.6%. In addition, the “weight increase in second adsorption cycle (GVS)” value in data set [2] (second adsorption cycle, RH of 40%) is reported as greater than 2%. Further, in data set [2] (to 70% RH), the “weight increase to 70% RH (GVS)” value is given as roughly 1.3%.

As for `C[C@H](O)COC[C@H](Cc1ccc(O)cc1)NC(=O)CCc1ccccc1` [polymorph 2, (S,S)-2-N(3-O-(propan-2-ol)-1-propyl-4-hydroxybenzene)-3-phenylpropylamide], in data set [1] (dog bioavailability tests), the “bioavailability (in words)” value is “exceptionally high”. Moreover, in data set [1] (male Beagle dog plasma, oral suspension, target 60 mg/kg, corrected to a 60.0 mg dose), the “LS geometric mean AUC(0-∞)” value came to 20064 ng·h/mL. The “LS geometric mean Cmax” value in data set [1] (setting [3]) is listed as 11088 ng/mL. For the same molecule, in data set [1] (male Beagle dog, oral, dose-corrected, 90% CI 1.35, 1.71), the “geometric mean ratio (polymorph 2/polymorph 1) of AUC(0-∞)” value turned out to be 1.52. Also, in data set [1] (male Beagle dog, oral, dose-corrected, 90% CI 1.84, 2.70), the “geometric mean ratio (polymorph 2/polymorph 1) of Cmax” value was determined as 2.22. Also, the “adverse reactions to the oral administration” value in data set [1] (male Beagle dog) is on record as “No adverse reactions”. For the same molecule, in data set [2], the “hygroscopicity (GVS, in words)” value was “only slightly hygroscopic” and the “weight gain to 80% RH (GVS)” value is 0.6%. Besides, in data set [2] (after two adsorption/desorption cycles), the “overall weight loss by the end of the two adsorption/desorption cycles (GVS)” value is on record as roughly 1%. Moreover, in data set [2] (listed as Form 2), the “change of polymorphic form on GVS cycling” value is “no change of polymorphic form”; the “hygroscopicity (GVS, in words)” value is listed as “only slightly hygroscopic”; the “weight gain to 80% RH (GVS)” value amounted to 0.6%.
